Source: article PMC9415947 (Pharmaceuticals, 2022)
Like-named read-outs stand apart in the source and are kept apart here.

Assays:
PI3Kα [1] = target: T1, PI3Kα (Homo sapiens, UniProt P42336); assay: In vitro PI3K inhibition assay (ADP-Glo kinase assay), PI3Kα; format: biochemical; details: for Fold Selectivity α/δ: ratio IC50 PI3Kα / IC50 PI3Kδ
T1 construct: purchased Merck Millipore (methods text)
Procedure: (§1) All compounds were tested in a biochemical assay that measured the inhibition of phosphatidylinositol […] production by PI3K isoforms using the ADP-Glo kinase assay (Promega). In addition, the effects of synthesized compounds on B cell proliferation were measured.
(§2) The potency and selectivity of compounds were assessed by measuring the ability of PI3K kinases to convert ATP to ADP during an enzymatic reaction in the presence of decreasing doses of tested compounds. The experiments were carried out using the ADP-Glo kinase assay kit (Promega), according to the manufacturer’s protocol. PI3Kα, PI3Kβ, PI3Kδ, and PI3Kγ have been purchased from Merck Millipore and phosphoinositol-4,5-bisphosphate (PIP2) lipid vesicles with phosphoserine from ThermoFisher Scientific were used as a substrate in the enzymatic reaction.
(§3) After the reaction, the ADP-Glo reagent and the kinase detection reagent were added sequentially with 40 min of incubation (25 °C, 600 rpm) after adding each reagent. Finally, the luminescence intensity was measured and the IC50 was calculated using GraphPad Prism 7 software. The presented results are the mean value of IC50 from at least two independent experiments.

PI3Kβ = target: T2, PI3Kβ (Homo sapiens, UniProt P42338); assay: In vitro PI3K inhibition assay (ADP-Glo kinase assay), PI3Kβ; format: biochemical; details: for IC50: mean of two independent experiments; for Fold Selectivity β/δ: ratio IC50 PI3Kβ / IC50 PI3Kδ
T2 construct: purchased Merck Millipore
Procedure: as §1, §2, §3

PI3Kγ = target: T3, PI3Kγ (Homo sapiens, UniProt P48736); assay: In vitro PI3K inhibition assay (ADP-Glo kinase assay), PI3Kγ; format: biochemical; details: for IC50: mean of two independent experiments; for Fold Selectivity γ/δ: ratio IC50 PI3Kγ / IC50 PI3Kδ
T3 construct: purchased Merck Millipore
Procedure: as §1, §2, §3

PI3Kδ [2] = target: T4, PI3Kδ (Homo sapiens, UniProt O00329); assay: In vitro PI3K inhibition assay (ADP-Glo kinase assay), PI3Kδ; format: biochemical; details: mean of two independent experiments
T4 construct: purchased Merck Millipore
Procedure: as §1, §2, §3

CD19+ B cells = assay: B cell (CD19+) proliferation assay, CFSE flow cytometry; format: cell-based; details: Homo sapiens, 96 h, read-out: IC50 CD19
Procedure: CD19 cells were isolated from PBMCs using magnetic beads (Stem Cell (Vancouver, Canada)) and then labeled with 2 µM of CFSE (Invitrogen (Waltham, MA, USA)).
After 4 days, cells were stained with LIVE/DEAD™ kit (Invitrogen (Waltham, MA, USA)). Samples were acquired using Attune NxT flow cytometer (Invitrogen) and analyzed using FlowJo software. Each biological assay was performed with cells isolated from a different donor. The presented results constitute the average percentage values of proliferating cells from 3 independent experiments.
Human PBMCs were isolated from buffy coats of healthy donors obtained from the Regional Blood Donation and Blood Medicine Center in Warsaw. Lymphocytes B: CD19+ cells were isolated from PBMCs on magnetic beads (Stem Cell), labeled with 2 µM CFSE (Invitrogen), and seeded on a 96-well plate (1 × 10^5 cells/well). B cells were activated by 2 µg/mL of αIgM (Jackson ImmunoResearch) and 1 µg/mL of ODN2006 (InvivoGen). Cells were incubated with increasing concentrations of compounds (range 0.03–10,000 nM). After 4 days, B cells were stained with LIVE/DEAD™ kit (Invitrogen), acquired using the Attune NxT flow cytometer (Invitrogen), and analyzed using FlowJo10 software. For data normalization, the percentage value of proliferating cells in each sample was divided by the average percentage value of positive control in a single experiment. IC50 values were calculated using a three-parameter dose–response inhibition function in GraphPad Prism.

[3] = Plasma protein binding, mice; format: in vitro ADME; details: mouse
Source text: Table 5 Selected parameters measured for CPL302415 (6). | column: Plasma Protein Binding [%] / Mice

PAMPA permeability = format: in vitro ADME
[4] = Kinetic solubility, shake-flask protocol; format: physicochemical; details: aqueous buffer, kinetic from dmso stock; phosphate-buffered saline pH 7.4, 25 °C
[5] = Plasma protein binding, range across species; format: in vitro ADME; details: human, monkey, mouse, rat, range depending on the species, read-out: plasma protein binding (PPBs)
[6] = Metabolic stability in human liver microsomes (HLM); format: in vitro ADME; details: read-out: Metabolic Stability HLM t½
Bioavailability in mice = details: mouse, in vivo, depending on the formulation form, read-out: bioavailability F
[7] = Metabolic stability in mouse liver microsomes (MLM); format: in vitro ADME, mouse (CD-1)
[8] = Plasma protein binding, human; format: in vitro ADME
Source text: Table 5 Selected parameters measured for CPL302415 (6). | column: Plasma Protein Binding [%] / Human

[9] = Plasma protein binding, monkey; format: in vitro ADME
Source text: Table 5 Selected parameters measured for CPL302415 (6). | column: Plasma Protein Binding [%] / Monkey

[10] = Plasma protein binding, rat; format: in vitro ADME
Source text: Table 5 Selected parameters measured for CPL302415 (6). | column: Plasma Protein Binding [%] / Rat

Bioavailability in dogs = details: dog, in vivo, depending on the formulation form, read-out: bioavailability F
PI3Kα [11] = target: T1, PI3Kα; details: PI3Kδ versus PI3Kα, in words; cited from earlier work
PI3Kδ [12] = target: T4, PI3Kδ; details: cited from earlier work
PI3Kδ [13] = target: T4, PI3Kδ; details: cited from earlier work; remark: listed apart in the source
[14] = B cell proliferation, activated by αIgM and ODN2006, 4 days

T1 sequence (P42336 whole entry): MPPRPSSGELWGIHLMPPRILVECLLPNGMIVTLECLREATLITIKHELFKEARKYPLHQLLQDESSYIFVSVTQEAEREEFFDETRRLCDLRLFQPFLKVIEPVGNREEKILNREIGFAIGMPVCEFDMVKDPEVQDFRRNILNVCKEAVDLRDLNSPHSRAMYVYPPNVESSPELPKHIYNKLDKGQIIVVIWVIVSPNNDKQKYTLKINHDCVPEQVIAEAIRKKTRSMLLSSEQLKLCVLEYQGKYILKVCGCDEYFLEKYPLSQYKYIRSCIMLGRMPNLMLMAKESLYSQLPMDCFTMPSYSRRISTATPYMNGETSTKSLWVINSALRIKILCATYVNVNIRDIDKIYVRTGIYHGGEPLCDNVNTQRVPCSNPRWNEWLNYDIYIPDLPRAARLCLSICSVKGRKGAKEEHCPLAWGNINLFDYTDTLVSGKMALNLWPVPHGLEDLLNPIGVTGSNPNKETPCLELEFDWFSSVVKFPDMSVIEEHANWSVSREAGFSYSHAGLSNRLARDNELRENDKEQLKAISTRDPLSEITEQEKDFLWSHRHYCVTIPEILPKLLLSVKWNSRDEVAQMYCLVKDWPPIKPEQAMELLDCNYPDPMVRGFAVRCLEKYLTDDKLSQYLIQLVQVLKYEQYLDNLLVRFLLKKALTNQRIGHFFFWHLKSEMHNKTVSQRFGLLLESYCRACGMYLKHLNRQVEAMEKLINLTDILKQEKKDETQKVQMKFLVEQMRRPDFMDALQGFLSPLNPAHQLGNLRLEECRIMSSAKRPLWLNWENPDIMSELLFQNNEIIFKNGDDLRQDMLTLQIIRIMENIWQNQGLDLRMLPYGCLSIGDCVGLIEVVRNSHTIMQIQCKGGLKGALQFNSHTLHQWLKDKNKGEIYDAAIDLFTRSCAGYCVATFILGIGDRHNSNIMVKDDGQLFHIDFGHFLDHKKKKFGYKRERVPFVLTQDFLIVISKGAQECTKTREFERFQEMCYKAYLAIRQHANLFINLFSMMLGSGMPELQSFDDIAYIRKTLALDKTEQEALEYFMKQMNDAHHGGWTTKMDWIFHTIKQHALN
T1 sequence (P27986 whole entry partner): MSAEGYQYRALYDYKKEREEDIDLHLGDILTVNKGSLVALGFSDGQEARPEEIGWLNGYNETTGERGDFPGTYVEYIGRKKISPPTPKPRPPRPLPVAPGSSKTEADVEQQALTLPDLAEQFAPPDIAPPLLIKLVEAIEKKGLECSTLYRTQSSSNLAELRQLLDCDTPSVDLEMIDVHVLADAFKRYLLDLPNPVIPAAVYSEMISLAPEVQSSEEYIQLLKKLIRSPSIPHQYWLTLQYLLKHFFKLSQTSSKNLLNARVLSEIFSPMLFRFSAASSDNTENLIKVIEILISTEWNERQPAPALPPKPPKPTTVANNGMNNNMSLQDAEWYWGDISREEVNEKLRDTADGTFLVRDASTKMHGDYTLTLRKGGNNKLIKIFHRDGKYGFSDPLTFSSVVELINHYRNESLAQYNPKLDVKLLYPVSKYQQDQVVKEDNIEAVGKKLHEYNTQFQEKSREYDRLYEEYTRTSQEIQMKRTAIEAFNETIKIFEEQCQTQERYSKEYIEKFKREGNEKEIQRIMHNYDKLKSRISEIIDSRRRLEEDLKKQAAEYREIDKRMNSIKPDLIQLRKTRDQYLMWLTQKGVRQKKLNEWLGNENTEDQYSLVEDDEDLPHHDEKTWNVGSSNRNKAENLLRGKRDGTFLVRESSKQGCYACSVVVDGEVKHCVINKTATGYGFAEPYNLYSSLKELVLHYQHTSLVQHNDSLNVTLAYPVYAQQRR
T4 sequence (O00329 whole entry, looked up): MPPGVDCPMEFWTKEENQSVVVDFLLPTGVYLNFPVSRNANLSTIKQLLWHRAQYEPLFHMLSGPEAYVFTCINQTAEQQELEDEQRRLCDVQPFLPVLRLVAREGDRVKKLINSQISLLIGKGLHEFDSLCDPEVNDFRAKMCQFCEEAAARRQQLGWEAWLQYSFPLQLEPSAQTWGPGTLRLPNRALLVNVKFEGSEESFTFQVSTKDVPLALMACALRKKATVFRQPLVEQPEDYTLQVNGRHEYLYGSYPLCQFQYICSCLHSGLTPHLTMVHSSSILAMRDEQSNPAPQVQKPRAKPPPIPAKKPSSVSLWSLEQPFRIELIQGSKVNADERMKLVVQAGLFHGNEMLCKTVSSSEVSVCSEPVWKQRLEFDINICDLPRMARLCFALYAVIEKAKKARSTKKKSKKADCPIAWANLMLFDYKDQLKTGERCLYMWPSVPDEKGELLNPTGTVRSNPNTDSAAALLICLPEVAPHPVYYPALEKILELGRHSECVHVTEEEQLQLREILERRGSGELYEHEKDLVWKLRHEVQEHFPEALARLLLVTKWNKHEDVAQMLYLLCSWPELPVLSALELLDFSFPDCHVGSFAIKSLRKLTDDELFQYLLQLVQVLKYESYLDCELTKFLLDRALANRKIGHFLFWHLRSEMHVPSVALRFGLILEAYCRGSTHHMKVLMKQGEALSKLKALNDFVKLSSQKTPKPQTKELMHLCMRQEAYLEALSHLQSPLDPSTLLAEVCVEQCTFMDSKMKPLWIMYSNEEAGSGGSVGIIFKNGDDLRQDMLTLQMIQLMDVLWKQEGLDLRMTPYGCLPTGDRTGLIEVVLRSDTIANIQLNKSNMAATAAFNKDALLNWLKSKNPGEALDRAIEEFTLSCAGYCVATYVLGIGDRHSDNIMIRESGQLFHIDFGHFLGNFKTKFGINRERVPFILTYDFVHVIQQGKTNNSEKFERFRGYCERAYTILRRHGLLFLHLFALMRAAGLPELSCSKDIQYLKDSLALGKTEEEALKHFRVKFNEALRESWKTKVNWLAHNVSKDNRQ
T2 sequence (P42338 whole entry, looked up): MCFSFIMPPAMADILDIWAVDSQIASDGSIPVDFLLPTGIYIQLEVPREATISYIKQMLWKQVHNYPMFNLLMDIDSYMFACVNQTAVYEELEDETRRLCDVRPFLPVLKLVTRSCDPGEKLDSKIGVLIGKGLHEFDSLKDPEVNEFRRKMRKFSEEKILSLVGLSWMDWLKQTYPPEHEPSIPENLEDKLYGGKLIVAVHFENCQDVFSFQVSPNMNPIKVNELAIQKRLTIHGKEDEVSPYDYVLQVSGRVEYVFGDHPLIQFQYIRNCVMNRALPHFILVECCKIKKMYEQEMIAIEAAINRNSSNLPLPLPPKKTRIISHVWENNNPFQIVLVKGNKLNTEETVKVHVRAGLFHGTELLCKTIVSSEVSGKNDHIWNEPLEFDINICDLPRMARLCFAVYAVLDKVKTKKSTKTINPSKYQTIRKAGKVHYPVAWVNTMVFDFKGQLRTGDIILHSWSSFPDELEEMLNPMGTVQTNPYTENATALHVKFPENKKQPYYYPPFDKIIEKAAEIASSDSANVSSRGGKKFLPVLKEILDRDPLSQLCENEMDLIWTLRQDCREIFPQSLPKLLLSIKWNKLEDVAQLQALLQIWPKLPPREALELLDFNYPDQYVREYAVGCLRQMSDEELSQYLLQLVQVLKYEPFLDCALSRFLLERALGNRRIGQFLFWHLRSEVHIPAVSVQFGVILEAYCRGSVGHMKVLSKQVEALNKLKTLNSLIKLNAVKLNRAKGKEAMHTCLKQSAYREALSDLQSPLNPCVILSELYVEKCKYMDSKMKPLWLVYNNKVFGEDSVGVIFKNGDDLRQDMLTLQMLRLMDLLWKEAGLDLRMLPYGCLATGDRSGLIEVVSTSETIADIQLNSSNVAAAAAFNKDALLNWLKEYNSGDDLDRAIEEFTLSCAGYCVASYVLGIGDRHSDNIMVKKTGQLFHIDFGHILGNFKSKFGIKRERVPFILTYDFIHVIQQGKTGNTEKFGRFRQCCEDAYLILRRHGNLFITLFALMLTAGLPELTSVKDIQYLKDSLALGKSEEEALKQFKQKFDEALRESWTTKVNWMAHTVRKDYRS
T3 sequence (P48736 whole entry): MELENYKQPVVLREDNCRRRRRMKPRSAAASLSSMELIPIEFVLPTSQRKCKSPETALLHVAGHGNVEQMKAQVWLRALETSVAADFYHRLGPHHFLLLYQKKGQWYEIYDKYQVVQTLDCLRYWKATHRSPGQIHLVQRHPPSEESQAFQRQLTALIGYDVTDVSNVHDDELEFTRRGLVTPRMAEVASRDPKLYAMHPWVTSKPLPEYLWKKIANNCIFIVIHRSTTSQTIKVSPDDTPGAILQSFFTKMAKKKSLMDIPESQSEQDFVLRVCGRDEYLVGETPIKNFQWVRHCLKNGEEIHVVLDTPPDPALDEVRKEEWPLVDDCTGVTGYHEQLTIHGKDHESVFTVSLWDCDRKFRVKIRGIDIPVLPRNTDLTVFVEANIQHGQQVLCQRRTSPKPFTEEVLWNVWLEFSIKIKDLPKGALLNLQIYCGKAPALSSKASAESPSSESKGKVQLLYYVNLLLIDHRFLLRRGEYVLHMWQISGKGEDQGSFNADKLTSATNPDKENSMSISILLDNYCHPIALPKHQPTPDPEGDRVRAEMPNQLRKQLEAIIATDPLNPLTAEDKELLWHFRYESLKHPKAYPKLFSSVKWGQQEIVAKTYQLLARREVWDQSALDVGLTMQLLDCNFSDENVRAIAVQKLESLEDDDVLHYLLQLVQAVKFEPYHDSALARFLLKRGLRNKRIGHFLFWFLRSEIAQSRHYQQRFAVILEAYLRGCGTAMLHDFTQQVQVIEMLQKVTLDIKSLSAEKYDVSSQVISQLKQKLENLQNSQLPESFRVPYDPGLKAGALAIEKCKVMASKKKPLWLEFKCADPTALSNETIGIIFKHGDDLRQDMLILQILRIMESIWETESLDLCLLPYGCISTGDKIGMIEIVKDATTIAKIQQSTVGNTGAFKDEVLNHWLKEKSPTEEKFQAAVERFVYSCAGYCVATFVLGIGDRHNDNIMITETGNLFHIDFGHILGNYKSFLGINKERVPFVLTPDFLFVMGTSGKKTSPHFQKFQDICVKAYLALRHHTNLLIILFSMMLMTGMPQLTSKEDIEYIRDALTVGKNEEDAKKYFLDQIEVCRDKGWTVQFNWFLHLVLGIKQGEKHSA

Compound | IC50 (PI3Kα [1]) [µM] | Fold Selectivity α/δ (PI3Kα [1]) | IC50 (PI3Kβ) [µM] | Fold Selectivity β/δ (PI3Kβ) | IC50 (PI3Kγ) [µM] | Fold Selectivity γ/δ (PI3Kγ) | IC50 (PI3Kδ [2]) [µM] | IC50 (CD19+ B cells; [14]) [µM] | other results
CC(C)(C(N)=O)N1CCN(Cc2cc3nc(-n4c(C(F)F)nc5ccccc54)cc(N4CCOCC4)n3n2)CC1 [Compound 17, 2-[4-({5-[2-(difluoromethyl)-1H-1,3-benzimidazol-1-yl]-7-(morpholin-4-yl)pyrazolo[1,5-a]pyrimidin-2-yl}methyl)piperazin-1-yl]-2-methylpropanamide] | 0.624 | 20 | 44.8 | 1444 | 2.2 | 71 | 0.031 | 0.052 | –
O=C(C1CC1)N1CCN(Cc2cc3nc(-n4c(C(F)F)nc5ccccc54)cc(N4CCOCC4)n3n2)CC1 [Compound 18] | 0.073 | 3.0 | 47.4 | 1973 | 0.156 | 6.5 | 0.024 | 0.058 | –
CS(=O)(=O)N1CCN(Cc2cc3nc(-n4c(C(F)F)nc5ccccc54)cc(N4CCOCC4)n3n2)CC1 [Compound 16, 2-(difluoromethyl)-1-{2-[(4-methanesulfonylpiperazin-1-yl)methyl]-7-(morpholin-4-yl)pyrazolo[1,5-a]pyrimidin-5-yl}-1H-1,3-benzimidazole] | 0.044 | 1.0 | 13.6 | 316 | 0.111 | 2.6 | 0.043 | 0.114 | –
CC(C)(C)N1CCN(Cc2cc3nc(-n4c(C(F)F)nc5ccccc54)cc(N4CCOCC4)n3n2)CC1 [Compound 6, 1-{2-[(4-tert-butylpiperazin-1-yl)methyl]-7-(morpholin-4-yl)pyrazolo[1,5-a]pyrimidin-5-yl}-2-(difluoromethyl)-1H-benzimidazole] | 1.43 | 79 | 25.5 | 1415 | 16.9 | 939 | 0.018 | – | fraction unbound [3]: 0.17; Papp (PAMPA permeability): 13.3 ×10⁻⁶ cm/s; solubility kinetic at 24 h [4]: > 500 µM; fraction unbound [5]: 0.17 to 0.21; half-life at 1 μM [6]: 2.42 h; bioavailability (Bioavailability in mice): > 55%; IC50 (CD19+ B cells; B-cell): 0.041 µM; microsomal CLint at 1 μM ([7]; CD-1, read-out: Metabolic Stability MLM CL): 3.7 µL/min/mg; half-life at 1 μM ([7]; CD-1, read-out: Metabolic Stability MLM t½): 6.3 h; fraction unbound [8]: 0.21; fraction unbound [9]: 0.19; fraction unbound [10]: 0.18; bioavailability (Bioavailability in dogs): > 90%
Cc1cc2nc(-n3c(C(F)F)nc4ccccc43)cc(N3CCOCC3)n2n1 [Compound 1] | – | – | – | – | – | – | – | – | selectivity toward the alpha isoform (PI3Kα [11]): poor; IC50 (PI3Kδ [12]): 0.475 µM
CS(=O)(=O)N1CCN(Cc2cc3nc(-c4cccc5[nH]ncc45)nc(N4CCOCC4)c3s2)CC1 [GDC-0941, 2-(1 H -Indazol-4-Yl)-6-(4-Methanesulfonyl-Piperazin-1-Ylmethyl)-4-Morpholin-4-Yl-Thieno [3,2-d]Pyrimidine] | – | – | – | – | – | – | – | – | PI3Kγ/δ selectivity (PI3Kδ [13]): poor
